Source: ChEMBL document CHEMBL1132949, “Conceptually new 20-epi-22-oxa sulfone analogues of the hormone 1alpha,25-dihydroxyvitamin D(3): synthesis and biological evaluation” (2000)

How the values were obtained:
MCF7 = test: In vitro activity on human breast adenocarcinoma cell line MCF-7 proliferation; type: functional; details: read-out: ED50 (the source's name)
[1] = In vitro vitamin D receptor (VDR)-mediated transcriptional potency in rat osteosarcoma ROS 17/2.8 cells; type: functional; details: read-out: ED50 (the source's name)
[2] = biological target: T1, Vitamin D3 receptor (Homo sapiens) (UniProt P11473); test: Binding affinity to Vitamin D3 receptor relative to 1,25D3
T1 sequence (whole entry): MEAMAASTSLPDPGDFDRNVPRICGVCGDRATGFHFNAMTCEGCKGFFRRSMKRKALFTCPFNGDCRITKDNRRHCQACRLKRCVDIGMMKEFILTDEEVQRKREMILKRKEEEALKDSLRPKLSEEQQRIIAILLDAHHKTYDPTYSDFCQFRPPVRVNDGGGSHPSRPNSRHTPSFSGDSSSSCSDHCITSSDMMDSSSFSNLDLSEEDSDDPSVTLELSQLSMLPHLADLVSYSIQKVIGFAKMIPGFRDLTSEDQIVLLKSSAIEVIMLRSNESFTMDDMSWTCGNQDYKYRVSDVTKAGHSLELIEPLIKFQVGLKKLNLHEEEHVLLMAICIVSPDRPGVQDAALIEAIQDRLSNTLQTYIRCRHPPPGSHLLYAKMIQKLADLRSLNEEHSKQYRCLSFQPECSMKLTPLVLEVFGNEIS

PBMC = test: In vitro inhibition of phytohemagglutininin-induced stimulation of human peripheral blood mononuclear cells proliferation; type: functional; details: read-out: ED50 (the source's name)

Row | Compound | EC50 (MCF7) | EC50 [1] | Binding affinity [2] | EC50 (PBMC)
1 | C=C1/C(=C\C=C2/CCC[C@]3(C)[C@@H]([C@@H](C)OCCCC(O)(CC)CC)CC[C@@H]23)C[C@@H](O)C[C@@H]1O [LEXACALCITOL] | 0.27 nM |  |  | 
2 | C=C1/C(=C\C=C2/CCC[C@]3(C)[C@@H]([C@@H](C)OCCCS(=O)(=O)C(C)(C)C)CC[C@@H]23)C[C@@H](O)C[C@@H]1O |  | > 100 nM | 0.4% | 
3 | C=C1/C(=C\C=C2/CCC[C@]3(C)[C@@H]([C@@H](C)OCCCS(=O)(=O)C(C)(C)C)CC[C@@H]23)C[C@H](O)C[C@H]1O | 9.6 nM | 1.6 nM | 26% | 8.4 nM
